# From US20240393292A1, “ALLERGY ANTIGEN AND EPITOPE THEREOF” (HOYU CO., LTD., priority 2019, published 2024)
# System: IgE antibodies from patients
# Assay: Wheat epitope mapping (2): overlapping 10-amino-acid peptide fragments shifted by one amino acid
# Format: binding, human
# Settings: sequence without X; for Epitope sequence binding to IgE antibody, rank of the sequence (Key/Preferably/More preferably/Further preferably): serum of patient P2 (WDEIA)
# Description: The peptides to be synthesized were shifted by one amino acid.
# The library was prepared by the same procedure as described above in (A), and the presence or absence of binding of an IgE antibody present in the serum of a patient to each peptide fragment was measured by the same technique as described above. Numeric values determined from images obtained as a result of carrying out only the procedures (1) and (4) to (6) described above in the subsection titled (3) Spotting of cellulose-bound peptide solution were used as control values. The control value of each peptide was subtracted from numeric values determined from images obtained from results about the serum of patients, and the obtained value of the difference was compared with values of the peptides serving as the basis of overlapping.
# Chemiluminescence intensity in images obtained by measurement was converted into a numeric value in the same manner as in (A). Numeric values determined from images obtained as a result of carrying out only the procedures (1) and (4) to (6) described above in the subsection titled (3) Spotting of cellulose-bound peptide solution (secondary antibody measurement values) were used as control values. The control value of each peptide was subtracted from numeric values determined from images obtained from results about the serum of patients. When values obtained using the sequences (SEQ ID NOs: 29, 131, 191, 281, 346, 414, 493, 562, 640, 706, 776, 899, 974, 1010, 1089, 1142, 1166, 1209, 1257, 1297, 1367, 1403, 1508, 1566, 1598, 1608, 1685, 1753, 1789, 1836, 1895, 1977, 2004, 2027, 2068, 2154, 2217, 2265, 2309, 2342, 2419, 2491, 2545, 2613, 2631, 2674, 2701, 2774, 2809 and 2830) serving as the basis of overlapping were defined as 100%, it was determined that: a peptide having a value of the difference that was less than 30% had no binding activity against IgE antibodies; a peptide having a value of the difference that was 30% or more and less than 50% had binding activity, albeit poor, against IgE antibodies; a peptide having a value of the difference that was 50% or more and less than 70% had binding activity, albeit somewhat poor, against IgE antibodies; and a peptide having a value of the difference that was 70% or more had equivalent or good binding activity against IgE antibodies and was thus a peptide had remaining binding activity against IgE antibodies.
# [1] = serum of patient G7 (adult, general immediate type allergy to wheat)
substance,measurement,setting,value
1287 (ILPRS; REGION 1..5: note = epitope) [compound 1287],"Epitope sequence binding to IgE antibody, rank of the sequence","serum of patient P50 (child, general immediate type allergy to wheat)",Key
1288 (LPRS; REGION 1..4: note = epitope) [compound 1288],"Epitope sequence binding to IgE antibody, rank of the sequence","serum of patient P52 (child, general immediate type allergy to wheat)",Key
1291 (LPRS; REGION 1..4: note = epitope) [compound 1291],"Epitope sequence binding to IgE antibody, rank of the sequence","serum of patient P53 (child, general immediate type allergy to wheat)",Key
1295 (VSMILPRSD; REGION 1..9: note = epitope) [compound 1295],"Epitope sequence binding to IgE antibody, rank of the sequence",[1],Key
1296 (ILPRSDCKV; REGION 1..9: note = epitope) [compound 1296],"Epitope sequence binding to IgE antibody, rank of the sequence",[1],Key
1300 (SINVENVED; REGION 1..9: note = epitope) [compound 1300],"Epitope sequence binding to IgE antibody, rank of the sequence (Key/Preferably/More preferably/Further preferably)",,Preferably
1301 (SINVEN; REGION 1..6: note = epitope) [compound 1301],"Epitope sequence binding to IgE antibody, rank of the sequence (Key/Preferably/More preferably/Further preferably)",,Key
1303 (INVEN; REGION 1..5: note = epitope) [compound 1303],"Epitope sequence binding to IgE antibody, rank of the sequence",serum of patient P3 (WDEIA),Preferably
1304 (NVEN; REGION 1..4: note = epitope) [compound 1304],"Epitope sequence binding to IgE antibody, rank of the sequence",serum of patient P3 (WDEIA),Key
1305 (NRRALR; REGION 1..6: note = epitope) [compound 1305],"Epitope sequence binding to IgE antibody, rank of the sequence",serum of patient P3 (WDEIA),Key
1307 (NVEN; REGION 1..4: note = epitope) [compound 1307],"Epitope sequence binding to IgE antibody, rank of the sequence",serum of patient P8 (WDEIA),Key
1311 (NVEN; REGION 1..4: note = epitope) [compound 1311],"Epitope sequence binding to IgE antibody, rank of the sequence",serum of patient P10 (WDEIA),Key
1313 (NVEN; REGION 1..4: note = epitope) [compound 1313],"Epitope sequence binding to IgE antibody, rank of the sequence",serum of patient P12 (WDEIA),Key
1316 (VEDNRRALR; REGION 1..9: note = epitope) [compound 1316],"Epitope sequence binding to IgE antibody, rank of the sequence",serum of patient P14 (WDEIA),Key
1320 (NVEN; REGION 1..4: note = epitope) [compound 1320],"Epitope sequence binding to IgE antibody, rank of the sequence",serum of patient P17 (WDEIA),Key
1324 (INVEN; REGION 1..5: note = epitope) [compound 1324],"Epitope sequence binding to IgE antibody, rank of the sequence",serum of patient P20 (WDEIA),Preferably
1332 (SINVEN; REGION 1..6: note = epitope) [compound 1332],"Epitope sequence binding to IgE antibody, rank of the sequence",serum of patient P22 (WDEIA),Preferably
1333 (INVEN; REGION 1..5: note = epitope) [compound 1333],"Epitope sequence binding to IgE antibody, rank of the sequence",serum of patient P22 (WDEIA),Key
1336 (NVEN; REGION 1..4: note = epitope) [compound 1336],"Epitope sequence binding to IgE antibody, rank of the sequence",serum of patient P26 (WDEIA),Key
1339 (INVEN; REGION 1..5: note = epitope) [compound 1339],"Epitope sequence binding to IgE antibody, rank of the sequence",serum of patient P32 (WDEIA),Preferably
1340 (NVEN; REGION 1..4: note = epitope) [compound 1340],"Epitope sequence binding to IgE antibody, rank of the sequence",serum of patient P32 (WDEIA),Key
1341 (NRRALR; REGION 1..6: note = epitope) [compound 1341],"Epitope sequence binding to IgE antibody, rank of the sequence",serum of patient P32 (WDEIA),Key
1344 (INVEN; REGION 1..5: note = epitope) [compound 1344],"Epitope sequence binding to IgE antibody, rank of the sequence",serum of patient P33 (WDEIA),Preferably
1345 (NVEN; REGION 1..4: note = epitope) [compound 1345],"Epitope sequence binding to IgE antibody, rank of the sequence",serum of patient P33 (WDEIA),Key
1346 (NRRALR; REGION 1..6: note = epitope) [compound 1346],"Epitope sequence binding to IgE antibody, rank of the sequence",serum of patient P33 (WDEIA),Key
1351 (INVEN; REGION 1..5: note = epitope) [compound 1351],"Epitope sequence binding to IgE antibody, rank of the sequence",serum of patient P34 (WDEIA),Preferably
1353 (NVEN; REGION 1..4: note = epitope) [compound 1353],"Epitope sequence binding to IgE antibody, rank of the sequence",serum of patient P35 (WDEIA),Key
1354 (VEDNRRALR; REGION 1..9: note = epitope) [compound 1354],"Epitope sequence binding to IgE antibody, rank of the sequence",serum of patient P35 (WDEIA),Key
1356 (INVEN; REGION 1..5: note = epitope) [compound 1356],"Epitope sequence binding to IgE antibody, rank of the sequence",serum of patient P36 (WDEIA),Preferably
